With `CCCCc1oc2ccccc2c1Cc1ccc(OS(=O)(=O)c2ccc(C(=O)O)c(O)c2)cc1` the melting point was 135 to 138 °C.
`N#CN=[N+]([O-])c1ccc2c(c1)OCO2` gave a melting point of 145 to 147 °C.
`CC(C)(C)C(=O)c1c[nH]c2ncc(-c3cccc(C#N)c3)nc12` gave a melting point of 248 to 249 °C.
Compound `C[N+]([O-])=NNc1cccnc1` has a melting point of 95 to 97 °C.
For `Cc1cccc(C)c1N1CC(=N)N(c2c(C)cccc2C)C1C(=O)c1ccc(Cl)cc1` (stereo not drawn), the melting point was 155 to 156 °C.
`N#Cc1ccc(-c2ccc(Br)o2)cc1` showed a melting point of 94 to 94.5 °C.
Work on `COc1ccc(C(=O)Nc2ccc(F)c(F)c2)cc1NCc1cccnc1` yielded a melting point of 148 to 149 °C.
For `Cc1onc(-c2ccccc2)c1-c1[nH]c2ccccc2c1CCCN(C)C`, the melting point was 156 to 157 °C.
Work on `CN(CCSc1ccc(C=C2SC(=O)NC2=O)cc1)c1nc2ccccc2o1` yielded a melting point of 189 °C.
In the case of `COc1cc(C(C)O)c(F)cc1Cl` (stereo not drawn), the melting point is reported as 68.5 to 69.5 °C.
With `Cc1cc(Cl)nc(S(C)(=O)=O)n1` the melting point was 72 °C.
`CCn1c(COc2ccc(NC(=O)c3cc(F)cc(N4CCOCC4)c3)c3ccccc23)n[nH]c1=O` showed a melting point of 260 °C.
`O=C(O)c1ccc(OC(F)(F)F)c([N+](=O)[O-])c1` showed a melting point of 137 to 139 °C.
Work on `COc1cccc2c1C[C@H]1C[C@@H](CN3CCC(NC(=O)C(c4ccccc4)c4ccccc4)CC3)CN(C)[C@@H]1C2` yielded a melting point of 219 to 222 °C.
Compound `CCOC(=O)c1ncc2[nH]c3ccc(C4=CC(=O)CCC4)cc3c2c1C` has a melting point of 245 to 248 °C.
Compound `O=C(O)COc1cccc2c1CCc1sc(SCC=Cc3ccccc3)nc1-2` has a melting point of 171 to 172 °C.
`Cc1ccc(C(Cl)=CC(=O)NC(Cc2ccccc2)C(=O)O)cc1` (stereo not drawn) gave a melting point of 168 to 170 °C.
With `CC(C)Oc1c(C(=O)O)sc2c1CSCC2` the melting point was 148 to 149 °C.
For `COc1cc(C=CC(=O)C=Cc2ccc(OC(C)=O)c(OC)c2)ccc1OC(C)=O`, the melting point was 150 °C.
With `Cn1nc(C(F)(F)F)cc1Oc1cccc(Cl)n1` the melting point was 56 to 58 °C.
Work on `O=c1cc(-c2ccncc2)nc2n1CCN2` yielded a melting point of 318 to 320 °C.
`COC1=CC(=O)C(=O)C=C1NCCCl` showed a melting point of 150 to 152 °C.
Compound `CCOc1ccc(OCCCCCN2CCN(c3nccs3)CC2)cc1` has a melting point of 79 to 81 °C.
`CS(=O)(=O)c1ccc(C(=O)Nc2ccc(Cl)c(-c3ccc(C(=O)NO)cn3)c2)c(Cl)c1` gave a melting point of 190 to 193 °C.
In the case of `CC(C)(C)OC(=O)N1CC(c2ccc(N=C(c3ccccc3)c3ccccc3)nc2)C1`, the melting point is reported as 104 to 105 °C.
`CCCc1c(OCCCCCC(=O)c2cc(C)c(OC)c(OC)c2C)ccc(C(=O)O)c1O` gave a melting point of 92 to 94 °C.
With `C=CCn1ccnc1C(O)(c1ccccc1)c1ccc(Cl)cc1` (stereo not drawn) the melting point was 165 to 166 °C.
For `CN(C)c1cc(CC#N)cc(Cc2nc3c(F)c(F)cc(F)c3s2)c1`, the melting point was 99 to 100 °C.
In the case of `CC(=O)C1=CCC2C3CCC4CC(O)C(Cl)CC4(C)C3CCC12C` (stereo not drawn), the melting point is reported as 246 to 252 °C.
With `O=C1c2ccccc2-n2cnc(I)c2[C@@H]2CCCN12` the melting point was 222 to 223 °C.
For `COc1ccc2ncnc(N3CCCc4ccccc43)c2c1`, the melting point was 98 °C.
For `CCCOc1ccc(CCC(=O)N2CCOCC2)cc1-c1nc2c(c(C)nn2CCC)c(=O)[nH]1`, the melting point was 132 to 133 °C.
`CCc1nn(C2CCCC2)c2cc(C(=O)Nc3ccc(C(=O)NOCc4ccccc4)cc3)ccc12` showed a melting point of 194 to 198 °C.
Compound `Cc1[nH]c([N+](=O)[O-])c(C)c1-c1ccnc(Nc2ccc(F)cc2)n1` has a melting point of 166 to 170 °C.
`C=CC(=O)NC1CC(C)(C)N(C=CC(=O)OCC)C(C)(C)C1` showed a melting point of 123 to 125 °C.
`O=C(CN1CCC(Cc2ccc(F)cc2)CC1)Nc1ccc2[nH]c(=S)[nH]c2c1` showed a melting point of 266 to 268 °C.
For `CCOc1noc2c1CN(C(=O)OC)CC2`, the melting point was 95 to 98 °C.
In the case of `Cc1cccc(C(=O)CC(=O)C2CCCC2)c1O`, the melting point is reported as 74 to 75 °C.
`CC(=O)Nc1cc(C(C)=O)ccc1OCCCCl` gave a melting point of 124 to 126 °C.
In the case of `CC(C)(C)C1CSC2(CCC(C)(C(Cl)Cl)CC2)SC1` (stereo not drawn), the melting point is reported as 163 °C.
In the case of `N#Cc1cnc2c(-c3ccncc3)c(-c3ccc(F)cc3)nn2c1N`, the melting point is reported as > 280 °C.
With `CC(=O)Nc1ccc(-c2cc3[nH]c(=O)[nH]c3nc2C)cc1` the melting point was > 300 °C.
Compound `CC(=O)NC1CCn2c1nc1cc(NC(=O)c3cc4cc(F)ccc4n3Cc3cccc(F)c3)cnc12` (stereo not drawn) has a melting point of 282 to 283 °C.
Work on `CCOC(=O)N1CCC2(CC1)C(=O)NCN2c1ccc(F)cc1` yielded a melting point of 153 °C.
In the case of `COC(=O)[C@@H]1CCCN1S(=O)(=O)c1ccc(Cl)c(COc2cccc3ccc(C)nc23)c1Cl`, the melting point is reported as 136 °C.
Work on `COc1ccc(N2CCN(C3CCN(CC(O)COc4cccc5[nH]c(C)cc45)CC3)C2=O)cc1` (stereo not drawn) yielded a melting point of 155 to 157 °C.
Work on `CC1(C)CCOC1=C(n1ccnc1)S(=O)(=O)c1ccc(Cl)cc1` yielded a melting point of 192 to 194 °C.
With `CCOP(=O)(CC(=O)Nc1cc2c(Nc3ccc(OCc4cccc(Cl)c4)c(Cl)c3)ncnc2cn1)OCC` the melting point was 106 to 109 °C.
For `CC(C)C[C@H](NS(=O)(=O)c1ccccc1)C(=O)NC(C)(C)C(=O)c1c(-c2ccccc2)c1=O`, the melting point was 53 to 59 °C.
Compound `CC(C)(C)OC(=O)N1CCN(C(=O)CCl)CC1` has a melting point of 68 to 70 °C.
With `CCOC(=O)C(=O)Nc1cccc(S(C)=O)c1C(N)=O` (stereo not drawn) the melting point was 164 to 166 °C.
`COc1ccc(-c2noc3c2C(c2ccc(OC)c(O)c2)C2=C(COC2=O)N3)cc1` (stereo not drawn) gave a melting point of 219 to 221 °C.
With `CCCCCCCCCCCCC(=O)CC(O)Cc1ccccc1` (stereo not drawn) the melting point was 40 to 43 °C.
Compound `O=Cc1cccc2ncc(-c3ccccc3)cc12` has a melting point of 122 to 124 °C.
Work on `CN1CCN(C(=S)Nc2ccc3nc(C(C)(C)C)sc3c2)CC1` yielded a melting point of 176 to 177 °C.
For `N#CSC1=Nc2ccccc2Sc2nccn21`, the melting point was 111 to 113 °C.
Work on `O=C1C(=O)N2CCCc3cc(Cl)cc1c32` yielded a melting point of 188 to 189 °C.
In the case of `COc1ccc(C(C)=O)cc1C(F)(F)F`, the melting point is reported as 56 to 57 °C.
Compound `CCn1nnc(C(CO)=C(c2ccc(F)cc2)c2ccc(F)cc2)n1` has a melting point of 82 to 84 °C.
`CC(C)(C)OC(=O)Cn1c(C(=O)O)cc2cnccc21` gave a melting point of 265 °C.
Compound `CCCc1c(OCc2cccc(C(=O)NCCCc3cccnc3)c2)ccc(C(C)=O)c1O` has a melting point of 110 to 112 °C.
Compound `CCOC(=O)c1cn(C)cc(-c2ccccc2)c1=O` has a melting point of 107 to 108 °C.
`O=C(NCC12CC3CC(CC(C3)C1)C2)c1c(Cl)ccc2nc(N3CCC(C(=O)O)(c4ccccc4)CC3)ccc12` gave a melting point of 235 to 237 °C.
With `CCCN(CCC)C(=O)n1cnc(S(=O)C(C)C)n1` (stereo not drawn) the melting point was 15 to 20 °C.
For `O=C(O)COc1c(Br)cc(-c2c3ccccc3c(Br)c3sc4ccccc4c23)cc1Br`, the melting point was 259 to 261 °C.
With `CNc1ccc(-c2ncn(-c3ccc(C(F)(F)F)cc3)n2)cc1` the melting point was 106 to 113 °C.
`CC1=CC(C)(C)N2CCCc3c(O)ccc1c32` gave a melting point of 125 to 126 °C.
With `O=CC=Cc1cn(Cc2cccc([N+](=O)[O-])c2)nn1` the melting point was 136 to 140 °C.
With `CCC(=CC(CNC(C)=O)=NO)C(C)[N+](=O)[O-]` (stereo not drawn) the melting point was 124 to 125 °C.
Work on `CCOC(=O)c1cnn(C)c1C(=O)Nc1ccn2nc(N(C)CC)nc2c1` yielded a melting point of 167 °C.
Work on `CC(C)N(C(=O)CC(c1ccccc1)c1cc(Br)ccc1OCc1ccccc1)C(C)C` (stereo not drawn) yielded a melting point of 102 °C.
With `O=c1c2cc(F)c(N3CCCC3)cc2n(-c2ccc(F)cc2)c(=O)n1O` the melting point was 183 to 185 °C.
For `COc1cc(-c2nc3ccccc3n2Cc2ccccc2I)cc(OC)c1OC`, the melting point was 179 °C.

Source: a melting point compilation (Tetko et al.; mined from patent text by program, amines drawn as free bases though some values may be those of a salt)
